Results reported in ChEMBL document CHEMBL4428102, “Discovery of an Orally Bioavailable Gonadotropin-Releasing Hormone Receptor Antagonist” (J Med Chem, 2016).

Target: T1, Gonadotropin-releasing hormone receptor (Homo sapiens, UniProt P30968)
T1 sequence (P30968 whole entry): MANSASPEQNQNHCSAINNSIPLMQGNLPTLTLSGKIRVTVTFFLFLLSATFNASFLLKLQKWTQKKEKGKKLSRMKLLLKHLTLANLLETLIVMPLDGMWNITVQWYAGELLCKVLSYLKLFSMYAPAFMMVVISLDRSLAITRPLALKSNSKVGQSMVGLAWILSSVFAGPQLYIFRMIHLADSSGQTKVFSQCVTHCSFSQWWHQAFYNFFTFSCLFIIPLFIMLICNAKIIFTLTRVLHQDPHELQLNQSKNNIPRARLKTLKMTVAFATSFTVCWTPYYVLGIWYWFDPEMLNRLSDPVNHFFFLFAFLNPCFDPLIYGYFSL
Assay: Displacement of [125I]D-Trp6-LHRH from human GnRH receptor expressed in CHO-K1 cell membranes incubated for 1 hr by competitive binding assay

IC50 | SMILES
> 1000 nM | Cc1c(N2CCN(c3ccccn3)CC2)c(=O)n(C[C@H](N)c2ccccc2)c(=O)n1Cc1c(F)cccc1F
> 100 nM | COc1ccc(CN2CCN(c3c(C)n(Cc4c(F)cccc4F)c(=O)n(C[C@H](N)c4ccccc4)c3=O)CC2)cc1
> 100 nM | Cc1c(N2CCc3ccccc3C2)c(=O)n(C[C@H](N)c2ccccc2)c(=O)n1Cc1c(F)cccc1F
3.8 nM | Cc1c(N2CCN(Cc3cccc(F)c3)CC2)c(=O)n(C[C@H](N)c2ccccc2)c(=O)n1Cc1c(F)cccc1F
> 100 nM | Cc1c(N2CCN(Cc3ccccn3)CC2)c(=O)n(C[C@H](N)c2ccccc2)c(=O)n1Cc1c(F)cccc1F
> 100 nM | Cc1c(N2CCCC(Cc3ccccc3)C2)c(=O)n(C[C@H](N)c2ccccc2)c(=O)n1Cc1c(F)cccc1F (stereo not given in full)
0.91 nM | Cc1c(N2CCN(Cc3cccc(C(F)(F)F)c3)CC2)c(=O)n(C[C@H](N)c2ccccc2)c(=O)n1Cc1c(F)cccc1F
> 100 nM | Cc1c(N2CCN(Cc3ccncc3)CC2)c(=O)n(C[C@H](N)c2ccccc2)c(=O)n1Cc1c(F)cccc1F
10 nM | Cc1c(N2CCN(Cc3cccc(F)c3F)CC2)c(=O)n(C[C@H](N)c2ccccc2)c(=O)n1Cc1c(F)cccc1F
> 100 nM | Cc1c(N2CCC(c3ccccc3)C2)c(=O)n(C[C@H](N)c2ccccc2)c(=O)n1Cc1c(F)cccc1F (stereo not given in full)
> 100 nM | Cc1c(N2CCC(Cc3ccccc3)C2)c(=O)n(C[C@H](N)c2ccccc2)c(=O)n1Cc1c(F)cccc1F (stereo not given in full)
14.8 nM | COc1cccc(CN2CCN(c3c(C)n(Cc4c(F)cccc4F)c(=O)n(C[C@H](N)c4ccccc4)c3=O)CC2)c1
> 100 nM | Cc1cccc(CN2CCN(c3c(C)n(Cc4c(F)cccc4F)c(=O)n(C[C@H](N)c4ccccc4)c3=O)CC2)c1
> 100 nM | Cc1c(N2CCN(C(=O)c3ccccc3)CC2)c(=O)n(C[C@H](N)c2ccccc2)c(=O)n1Cc1c(F)cccc1F
4.1 nM | Cc1c(N2CCN(Cc3ccccc3F)CC2)c(=O)n(C[C@H](N)c2ccccc2)c(=O)n1Cc1c(F)cccc1F
> 100 nM | Cc1c(N2CCN(CCc3ccccc3)CC2)c(=O)n(C[C@H](N)c2ccccc2)c(=O)n1Cc1c(F)cccc1F
> 100 nM | Cc1c(N2CCNC(CCO)C2)c(=O)n(C[C@H](N)c2ccccc2)c(=O)n1Cc1c(F)cccc1F (stereo not given in full)
> 100 nM | Cc1c(N2CCN(Cc3cccc(C(=O)O)c3)CC2)c(=O)n(C[C@H](N)c2ccccc2)c(=O)n1Cc1c(F)cccc1C(F)(F)F
65.5 nM | Cc1ccc(CN2CCN(c3c(C)n(Cc4c(F)cccc4F)c(=O)n(C[C@H](N)c4ccccc4)c3=O)CC2)cc1
6.8 nM | Cc1c(N2CCN(Cc3ccccc3C#N)CC2)c(=O)n(C[C@H](N)c2ccccc2)c(=O)n1Cc1c(F)cccc1F
129 nM | Cc1c(N2CCCCC2)c(=O)n(C[C@H](N)c2ccccc2)c(=O)n1Cc1c(F)cccc1F
> 100 nM | Cc1c(N2CCN(Cc3cccc4cccnc34)CC2)c(=O)n(C[C@H](N)c2ccccc2)c(=O)n1Cc1c(F)cccc1C(F)(F)F
10 nM | Cc1c(N2CCN(Cc3ccc(C#N)cc3)CC2)c(=O)n(C[C@H](N)c2ccccc2)c(=O)n1Cc1c(F)cccc1F
> 100 nM | Cc1c(N2CCNC(c3ccccc3)C2)c(=O)n(C[C@H](N)c2ccccc2)c(=O)n1Cc1c(F)cccc1F (stereo not given in full)
> 100 nM | Cc1c(N2CCN(CC3COc4ccccc4O3)CC2)c(=O)n(C[C@H](N)c2ccccc2)c(=O)n1Cc1c(F)cccc1F (stereo not given in full)
14 nM | Cc1c(N2CCN(Cc3ccc(Cl)cc3)CC2)c(=O)n(C[C@H](N)c2ccccc2)c(=O)n1Cc1c(F)cccc1F
> 100 nM | Cc1c(N2CCN(Cc3ccccc3OC(F)(F)F)CC2)c(=O)n(C[C@H](N)c2ccccc2)c(=O)n1Cc1c(F)cccc1F
> 100 nM | Cc1c(N2CCN(CCCc3ccccc3)CC2)c(=O)n(C[C@H](N)c2ccccc2)c(=O)n1Cc1c(F)cccc1F

IC50 | SMILES
65.7 nM | Cc1c(N2CCN(Cc3ccc(C(F)(F)F)cc3)CC2)c(=O)n(C[C@H](N)c2ccccc2)c(=O)n1Cc1c(F)cccc1F
> 100 nM | Cc1c(N2CCN(S(=O)(=O)c3ccccc3)CC2)c(=O)n(C[C@H](N)c2ccccc2)c(=O)n1Cc1c(F)cccc1F
> 1000 nM | Cc1c(N2CCNCC2)c(=O)n(C[C@H](N)c2ccccc2)c(=O)n1Cc1c(F)cccc1F
> 100 nM | Cc1c(N2CCN(C(=O)OCc3ccccc3)CC2)c(=O)n(C[C@H](N)c2ccccc2)c(=O)n1Cc1c(F)cccc1F
> 100 nM | Cc1c(N2CCN[C@@H](Cc3ccccc3)C2)c(=O)n(C[C@H](N)c2ccccc2)c(=O)n1Cc1c(F)cccc1F
65.6 nM | Cc1c(N2CCN(Cc3ccccc3C(F)(F)F)CC2)c(=O)n(C[C@H](N)c2ccccc2)c(=O)n1Cc1c(F)cccc1F
75.6 nM | Cc1c(N2CCC(C)CC2)c(=O)n(C[C@H](N)c2ccccc2)c(=O)n1Cc1c(F)cccc1F
1.5 nM | Cc1c(N2CCN(Cc3cccc(OC(F)(F)F)c3)CC2)c(=O)n(C[C@H](N)c2ccccc2)c(=O)n1Cc1c(F)cccc1F
48.6 nM | Cc1c(N2CCN(Cc3ccc(F)cc3)CC2)c(=O)n(C[C@H](N)c2ccccc2)c(=O)n1Cc1c(F)cccc1F
> 100 nM | Cc1c(N2CCCC(c3ccccc3)C2)c(=O)n(C[C@H](N)c2ccccc2)c(=O)n1Cc1c(F)cccc1F (stereo not given in full)
5 nM | Cc1c(N2CCN(Cc3cccc(C#N)c3)CC2)c(=O)n(C[C@H](N)c2ccccc2)c(=O)n1Cc1c(F)cccc1F
> 100 nM | Cc1c(N2CCCCC2C)c(=O)n(C[C@H](N)c2ccccc2)c(=O)n1Cc1c(F)cccc1F (stereo not given in full)
13.9 nM | Cc1c(N2CCN(Cc3cccnc3)CC2)c(=O)n(C[C@H](N)c2ccccc2)c(=O)n1Cc1c(F)cccc1F
> 100 nM | Cc1c(N2CCN(Cc3ccc[nH]c3=O)CC2)c(=O)n(C[C@H](N)c2ccccc2)c(=O)n1Cc1c(F)cccc1C(F)(F)F
73.8 nM | Cc1ccccc1CN1CCN(c2c(C)n(Cc3c(F)cccc3F)c(=O)n(C[C@H](N)c3ccccc3)c2=O)CC1
13.3 nM | Cc1c(N2CCN(Cc3ccccc3[N+](=O)[O-])CC2)c(=O)n(C[C@H](N)c2ccccc2)c(=O)n1Cc1c(F)cccc1F
35.3 nM | Cc1c(N2CCN(Cc3ccc(O)cc3)CC2)c(=O)n(C[C@H](N)c2ccccc2)c(=O)n1Cc1c(F)cccc1F
> 1000 nM | Cc1c(N2CCN(c3ccccc3)CC2)c(=O)n(C[C@H](N)c2ccccc2)c(=O)n1Cc1c(F)cccc1F
36.9 nM | Cc1c(N2CCN(Cc3ccc([N+](=O)[O-])cc3)CC2)c(=O)n(C[C@H](N)c2ccccc2)c(=O)n1Cc1c(F)cccc1F
19.1 nM | Cc1c(N2CCN(Cc3ccccc3Cl)CC2)c(=O)n(C[C@H](N)c2ccccc2)c(=O)n1Cc1c(F)cccc1F
3.1 nM | Cc1c(N2CCN(Cc3cccc(Cl)c3)CC2)c(=O)n(C[C@H](N)c2ccccc2)c(=O)n1Cc1c(F)cccc1F
> 1000 nM | Cc1c(N2CCN(CC3CCCCC3)CC2)c(=O)n(C[C@H](N)c2ccccc2)c(=O)n1Cc1c(F)cccc1F
80.3 nM | Cc1c(N2CCCC(C)C2)c(=O)n(C[C@H](N)c2ccccc2)c(=O)n1Cc1c(F)cccc1F (stereo not given in full)
1.1 nM | Cc1c(N2CCN(Cc3cccc(C(F)(F)F)c3F)CC2)c(=O)n(C[C@H](N)c2ccccc2)c(=O)n1Cc1c(F)cccc1F
34.2 nM | Cc1c(N2CCC(Cc3ccccc3)CC2)c(=O)n(C[C@H](N)c2ccccc2)c(=O)n1Cc1c(F)cccc1F
> 100 nM | Cc1c(N2CCN[C@H](Cc3ccccc3)C2)c(=O)n(C[C@H](N)c2ccccc2)c(=O)n1Cc1c(F)cccc1F
> 1000 nM | COc1ccccc1CN1CCN(c2c(C)n(Cc3c(F)cccc3F)c(=O)n(C[C@H](N)c3ccccc3)c2=O)CC1
